# From PMC8673480 (Journal of medicinal chemistry, 2021)
# Biological target: SARS-CoV-2 3CLpro (Severe acute respiratory syndrome coronavirus 2, UniProt P0DTD1)
# Assay: cell-based
smiles,measurement,value
"CCCC1CCC(COC(=O)NC(CC(C)C)C(=O)NC(C=O)CC2CCNC2=O)CC1 [Compound 8b, ((1r,4R)-4-Propylcyclohexyl) methyl ((2S)-4-methyl-1-oxo-1-(((2S)-1-oxo-3-(2-oxopyrrolidin-3-yl)propan-2-yl)amino)pentan-2-yl) carbamate]",EC50,1.03 ± 0.49 µM
